Experimental data reported in patent US12109308B2, “Aqueous formulation comprising 1-(4-{[4-(dimethylamino)piperidin-1-yljcarbonyl}phenyl)-3-[4-(4,6-dimorpholin-4-yl-1,3,5-triazin-2-yl)phenyl]urea” (Pfizer Inc., priority 2018, dated 2024).

Experiments:
[1] = only with lactic acid and orthophosphoric acid, of the many acids tested; no cyclodextrin; cited from earlier work
[2] = Stability and water solubility of the crystalline free base (background statement); type: physicochemical

CN(C)C1CCN(C(=O)c2ccc(NC(=O)Nc3ccc(-c4nc(N5CCOCC5)nc(N5CCOCC5)n4)cc3)cc2)CC1 [1-(4-{[4-(Dimethylamino)piperidin-1-yl]carbonyl}phenyl)-3-[4-(4,6-dimorpholin-4-yl-1,3,5-triazin-2-yl)phenyl]urea]
concentration achieved as a clear solution [1]: ≥ 3000 µg/mL | chemically and physically stable for (time) ([2]; crystalline form, 25° C. and 60% Relative Humidity (RH)): up to 3 years | water solubility of the free base ([2]; for an aqueous solution formulation for intravenous or parenteral administration at therapeutic dosage levels): insufficiently water soluble
